Assay results taken from patent US11351102B2, “Plant actives and their anti-pollution effects thereof” (SAMI-SABINSA GROUP LIMITED, priority 2019, dated 2022).

What was measured:
[1] = tested on: IL-8; test: Anti-inflammatory activity: IL8 in assay supernatants by ELISA; format: cell-based
Experimental: IL8 in the assay supernatants were measured using Duoset ELISA kit (R & D systems, Cat No. DY208)

[2] = tested on: Human HaCaT keratinocyte cells; test: Protection against polycyclic aromatic hydrocarbons (BaP) in the presence of UVA, neutral red uptake; format: cell-based; conditions: for % Protection against BaP: individual active, UVA-BaP
Description: Polycyclic aromatic hydrocarbons (PAHs) are a class of mutagenic and tumorigenic environmental contaminants. PAHs are widespread in the environment produced from incomplete combustion of natural materials and tobacco smoke (Connell, D. W.; Hawker, D. W.; Warne, M. J.; Vowles. P. P.; Polycyclic aromatic hydrocarbons (PAHs). In Introduction into Environmental Chemistry (McCombs. K., and Starkweather, A. W., eds), 1997, pp. 205-217, CRC Press LLC, Boca Raton, Fla. 2. Shaw, G. R.; Connell, D. W.: Prediction and monitoring of the carcinogenicity of polycyclic aromatic compounds (PACs). Rev. Environ. Contam. Toxic., 1994, 135, 1-62.) PAHs themselves are biologically inert and require metabolic activation. in order to exert genotoxicity PAHs absorb light in the UVA region, react with oxygen or other molecules to generate reactive intermediates (Yu H, Xia Q, Yan J, et al. Photoirradiation of polycyclic aromatic hydrocarbons with UVA light—a pathway leading to the generation of reactive oxygen species, lipid peroxidation, and dna damage. Int J Environ Res Public Health. 2006; 3:348-354) Thus, PAHs can be “activated” by light irradiation to cause photo-induced cytotoxicity. Thus photoirradiation of PAHs with UVA irradiation represents a pollutant which causes cytotoxicity and DNA damage.
Human HaCaT keratinocyte cells were seeded at a density of 1×10^4 cells/well in 96 well plates. Cells were allowed to adhere for overnight. They were pretreated with Benzo(a)pyrene a PAH at 0.5 mM concentration along with different concentrations of plant actives for 50 minutes, exposed to UVA at an intensity of 17 Joules m2. Cells were washed with sterile buffer and fresh culture medium (2% of FBS) with respective concentrations of plant actives were added followed by incubation for 24 hours at 37° C. in a CO2 incubator. Neutral Red (25 μg/mL) (3-amino-7-dimethylamino-2-methylphenazine hydrochloride), was added to the cells for 3 hours. The uptake of NR by the cells was determined by lysing the cells and reading the absorbance at 540 nm in a Tecan microplate reader (TECAN Ltd, Männedorf, Switzerland)

[3] = DPPH free radical scavenging assay
Description: Reactive oxygen species (ROS) including superoxide, hydroxyl, peroxyl, and alkoxy radicals are produced by normal metabolic processes. Under normal condition, these free radicals are scavenged by the cellular anti-oxidants and remain in equilibrium. Radiations, toxins and pollutants increase the ROS which can induce oxidative damage to biomolecules such as lipids, nucleic acids, proteins and carbohydrates. These ROS induced damage causes skin irritation, inflammation, ageing, cancer and many other diseases, α, α-diphenyl-β-picrylhydrazyl (DPPH) free radical scavenging method is one of the first approach for evaluating the antioxidant potential of a compound.
Reagents: 0.1 mM of DPPH in ethanol, 0.1M phosphate buffered saline (pH 7.4)
DPPH is a stable free radical in a methanolic solution with an absorbance at 520 nm. If the free radicals are scavenged by an anti oxidant molecule, the resulting solution appears yellow. The hydrogen atoms or electrons donation ability of the extracellular metabolite was measured by the bleaching of purple coloured DPPH methanol solution.
Different concentrations of various plant actives were diluted in methanol. For the DPPH radical scavenging assay, 20 μL of different concentration of sample was mixed with 180 μL of DPPH in methanol in a 96 well plate following the method as described earlier (Clarke et al., 2013). The plate was kept in the dark for 15 min. after which the absorbance of the solution was measured at 540 nm using a microplate reader (TECAN Ltd, Männedorf. Switzerland). Blanks (DMSO, methanol) and standard (TBHQ solution in methanol) were recorded simultaneously. The extracts were screened with variable concentrations to establish the inhibition concentration (IC50, the concentration reducing DPPH absorbance by 50%).
The free radical scavenging activity was calculated as follows.
[formula] Where, B=Absorbance of reference solution (OD of DPPH) C=Absorbance of reference solution blank (OD of Methanol only) S=Absorbance of test solution C=Absorbance of test solution blank

[4] = tested on: Human HaCaT keratinocyte cells/mouse fibroblast cells; test: ROS assay (DCFH-DA) after exposure to heavy metals, UVA or UVB; format: cell-based
Description: A cell permeable, non-fluorescent dye, 2′,7′-dichlorofluorescein diacetate (DCFH-DA) enters the cell and the acetate group on DCFH-DA is cleaved by cellular esterases, trapping the non-fluorescent DCFH inside the cell. Subsequent oxidation by reactive oxygen species generated in the cells, yields the fluorescent DCF which can be detected at 485/520 Ex:Em wavelength. The scavenging activity of sample is indicated by the decrease in fluorescence when compared to the control without antioxidant.
Human HaCaT keratinocyte cells/mouse fibroblast cells were maintained in DMEM containing 25 mM glucose with 10% heat-inactivated fetal calf serum with antibiotics at 37° C. and 5% CO2. When the cells were 70-80% confluent, they were trypsinized, washed and seeded in 96 well plates at a density seeded at a density of 5×10^4 cells/well. Cells were allowed to adhere for overnight. Cells were pretreated with varying non toxic concentrations of different plant actives for 60 minutes before exposing to the pollutant. Cells were exposed to the following pollutants in the presence of plant actives.
UVA intensity of 15 Joules/m2 for 60 mins,
UV-B intensity of 4.6 Joule/m2 for 10 mins
Heavy metals (Cobalt chloride and Lead Nitrate at 0.25 mm each) for 6 hours
Intracellular ROS was determined after the specific treatment period by adding freshly prepared DCFH-DA reagent to all the wells at a concentration of 10 μg/well and incubated at 37° C. for 30 mins. The fluorescence was recorded at a wavelength of 485:520 (Ex:Em) nm in BMG FluoStar Optima microplate reader.

[5] = tested on: glutathione peroxidase (GPx); test: Antioxidant assay: glutathione peroxidase (GPx) activity in cell lysate; format: cell-based, Human; conditions: UV-exposed keratinocytes
Experimental: (§1) Cellular anti-oxidants are depleted by pollutants. The ability of plant actives to increase these anti-oxidant enzymes in the cells was studied in vitro. Human HaCaT keratinocyte cells were seeded at a density of 5×10^5 cells, well in 6 well plates. The cells were pretreated for one hour with plant actives and exposed to UVA intensity of 17 Joules/m2 for 50 mins. Cells were washed with sterile buffer and fresh culture medium (2% of FBS) with respective concentrations of plant actives were added followed by incubation for 24 hours at 37° C. in a CO2 incubator. Cell lysate were prepared and superoxide dismutase (SOD) levels and glutathione peroxidase (GPx) were estimated.
Glutathione peroxidase activity was determined according to the method of Hafeman et al. (1974). Glutathione peroxidase degrades H2O2 in presence of glutathione (GSH) thereby depleting it. GSH remaining is measured using DTNB, which gives a colored complex.
To a volume of 100 μl of cell lysate, 0.2 mM GSH, 0.05 mM H2O2 and 1 mM NaN3 in a total volume of 250 μl with 1M sodium phosphate buffer (pH 7.0). The reaction was incubated at 37° C. for 10 min and stopped by adding 50 μl of 25% TCA. […] The intensity of yellow color formation was measured at 412 nm after incubation at 37° C. for 10 min The enzyme activity was expressed as units/mg protein.

[6] = tested on: superoxide dismutase (SOD); test: Antioxidant assay: superoxide dismutase (SOD) activity in cell lysate, WST-1 method; format: cell-based, Human; conditions: UV-exposed keratinocytes
Experimental: as §1
The activity of SOD in the cell lysate was measured by WST-1 method using a kit as per the manufacturer's instructions (Elabsciences). Xanthine Oxidase (XO) can catalyze WST-1 react with O2. —to generate a water-soluble formazan dye. SOD can catalyze the disproportionation of superoxide anions, so the reaction can be inhibited by SOD, and the activity of SOD is negatively correlated with the amount of formazan dye. Therefore, the activity of SOD can be determined by the colorimetric analysis of WST-1 products.

[7] = tested on: Collagenase Type IV from Clostridium histolyticum; test: Anti-collagenase activity (DQ gelatin, fluorescence); format: biochemical
Description: Collagenase is one of the matrix metalloprotease, which digest collagen and other components of the extra cellular matrix (ECM). The ECM serves as a scaffold to stabilize the skin structure, and also helps in proliferation and metabolic functions of the skin cells. Loss of collagen leads to wrinkles and sagging of skin. The principle of the assay of collagenase inhibition is based on the fact that the substrate DQ™ gelatine is conjugated to fluorecein—a fluorescent compound. In DQ™ gelatine, fluorescence is quenched. DQ™ gelatine is efficiently digested by collagenases to yield a fluorescent compound which can be measured. The increase in fluorescence is proportional to enzyme activity. In the presence of an anti-collagenase compound the amount of fluorescence will be decreased for a fixed concentration of enzyme and substrate.
Collagenase Enzyme assay kit (Enzchek® collagenase, gelatinase assay kit, Invitrogen, USA)
The assay was performed in a 96 well black microtitre plate. Type IV from Clostridium histolyticum with DQ gelatin as substrate was used for the assay. Different concentrations of various plant actives were pre incubated with 20 µl of gelatin substrate (12.5 µg/ml). 100 µl of the Collagenase enzyme solution (final concentration—0.4 U/ml) was added and the fluorescence intensity was measured at […] after 30 minutes. Enzyme activity of control (buffer) was recorded
The percentage inhibition is calculated as follows:—
[formula] B—Fluorescence in the presence of enzyme. BC—Fluorescence in the absence of enzyme activity T—Fluorescence of enzyme activity in the presence of inhibitor TC—Fluorescence of the inhibitor alone

COc1cc(CCC(=O)CC(=O)CCc2ccc(O)c(OC)c2)ccc1O [Tetrahydrocurcumin, tetrahydrocurcumin]
inhibition at 12.5 µg/mL ([1]; read-out: % inhibition of IL-8): 6.07% | inhibition at 25 µg/mL ([1]; read-out: % inhibition of IL-8): 11.7% | % Protection against BaP ([2]; 5 μg/ml): No activity

Oc1cc(O)cc(/C=C/c2ccc(O)cc2O)c1 [Oxyresveratrol, oxyresveratrol]
DPPH radical scavenging % inhibition ([3]; 0.3125 μg/ml): 22.9% | DPPH radical scavenging % inhibition ([3]; 0.625 μg/ml): 42.07% | DPPH radical scavenging % inhibition ([3]; 1.25 μg/ml): 68.63% | DPPH radical scavenging % inhibition ([3]; 2.5 μg/ml): 77.89% | DPPH radical scavenging % inhibition ([3]; 5.00 μg/ml): 84.14% | DPPH radical scavenging IC50 ([3]; concentration reducing DPPH absorbance by 50%): 0.61 µg/mL | inhibition at 3.125 µg/mL ([1]; 3.125 μg/ml): 13.3% | inhibition at 6.25 µg/mL ([1]; 6.25 μg/ml): 18.4% | ROS generated by exposure to UVA ([4]; UVA 60 mins): reduced the ROS | ROS generated by exposure to UVB ([4]; UVB 10 mins): reduced the ROS | ROS generated by exposure to heavy metals ([4]; heavy metals (cobalt chloride and lead nitrate) 6 hours): reduced the ROS | glutathione peroxidase activity [5]: restored normal enzyme activity | glutathione peroxidase activity ([5]; listed as 95% oxyresveratrol): dose dependant decrease | protection against UVA+BaP ([2]; concentrations of 3.12-12.5 μg/ml): dose dependant protection | % Protection against BaP ([2]; 6.25 μg/ml): 28.04% | superoxide dismutase activity [6]: restored normal enzyme activity | superoxide dismutase activity ([6]; listed as 95% oxyresveratrol): dose dependant increase | Anti-collagenase activity % inhibition ([7]; 12.5 μg/ml): 0.05% | Anti-collagenase activity % inhibition ([7]; 25 μg/ml): 9.93% | Anti-collagenase activity % inhibition ([7]; 50 μg/ml): 41.19% | Anti-collagenase activity % inhibition ([7]; 100 μg/ml): 80.92%

COc1cc(/C=C/c2ccc(O)cc2)cc(OC)c1 [Pterostilbene, pterostilbene]
% Protection against BaP ([2]; 2.5 μgml): No activity
